Measured values reported in patent US20120059009A1, “ANTI-TUMOR AGENT CONTAINING TEGAFUR-GIMERACIL-OTERACIL POTASSIUM COMBINATION DRUG AND OXALIPLATIN” (TAIHO PHARMACEUTICAL CO., LTD., priority 2009, published 2012).
Like-named read-outs stand apart in the source and are kept apart here.

Legend:
[1] = system: human colorectal cancer COL-1; assay: Anti-tumor effect (IR) in human colorectal cancer COL-1 xenograft model; type: in vivo, male nude mice (BALB/cA-nu); settings: in the combination S-1 7 mg/kg, l-OHP 4.2 mg/kg
Method: A fragment (about 2 mm diameter) of human colorectal cancer COL-1 was transplanted into the right axilla of each of male nude mice (BALB/cA-nu, 4-week old, purchased from CLEA Japan, Inc.), and the tumor volume ((longer diameter)×(shorter diameter)^2/2) of the mouse was calculated. The mice were allocatedinto groups so that the average tumor volumes of the groups were adjusted to about 220 mm^3 (8 mice/group). Drug administration was started on the next day after the day of grouping (Day 0). […] TSU-68 was orally administered once a day at a dose of 200 or 400 mg/kg/day from Day 1 to Day 28. A group to which no drug was administered was set as a control group. During drug administration, the tumor volume of each mouse was measured every 3 to 4 days, and the relative tumor volume (RTV) and the anti-tumor effect (IR (%)) of each group were calculated by the formulas below. The statistical significance of difference of the anti-tumor effect between drug-administration group and control group was analyzed by the Student's t-test (both sides) using the average RTV value of these groups. A P value of p<0.05 was considered statistically significant. Furthermore, the advantage in anti-tumor effect (augmentation effect) of the S-1/l-OHP/TSU-68 combination group, with respect to each of the control group, the S-1/l-OHP combination group and the TSU-68 single administration group, was statistically analyzed through the IUT test. […] Relative tumor volume (RTV)=(Tumor volume on Day N)/(Tumor volume on Day 1) [F1] Anti-tumor effect (IR(%))=[1−(RTV of drug-administration group)/(RTV of control group)]×100

[2] = system: metastatic colorectal cancer patients; type: in vivo, human
Method: The safety of the case where metastatic colorectal cancer patients (9 cases) were subjected to l-OHP and S-1 combination therapy with administration of TSU-68 was examined. In this study, one cycle of the treatment was consisted of 21 days. To each patient, l-OHP was intravenously administered at a dose of 130 mg/m^2 (per body surface area) on Day 1, and S-1 was orally administered, twice a day after meal, at a daily dose (in terms of tegafur) of 70 mg/m^2 (per body surface area) from Day 1 to Day 14. The 7 days from Day 15 to Day 21 were placed as a rest period. TSU-68 was orally administered every day, twice a day after meal, at a daily dose of 400 mg to 800 mg.
The above study was carried out in order to determine the recommended dose (RD) of TSU-68 in the case where l-OHP and S-1 combination therapy, whose efficacy to colorectal cancer had been established, may be carried out in combination with administration of TSU-68, without causing adverse side effects.
The safety was evaluated according to NCI-CTCAE (3rd edition, the National Cancer Institute's Common Terminology Criteria for Adverse Events version 3.0).

**Q.** What does the source list for `Cc1[nH]c(/C=C2\C(=O)Nc3ccccc32)c(C)c1CCC(=O)O` [TSU-68, 3-[2,4-dimethyl-5-[[(Z)-2,3-dihydro-2-oxo-1H-indol-3-ylidene]methyl]-1H-pyrrol-3-yl]propanoic acid]?
**A.** IR (%) Day 15 ([1]; TSU-68 200 mg/kg/day p.o.): 47.5%; IR (%) Day 15 ([1]; TSU-68 400 mg/kg/day p.o.): 51.4%; IR (%) Day 22 ([1]; TSU-68 200 mg/kg/day p.o.): 47.8%; IR (%) Day 22 ([1]; TSU-68 400 mg/kg/day p.o.): 46.3%; IR (%) Day 29 ([1]; TSU-68 200 mg/kg/day p.o.): 49.2%; IR (%) Day 29 ([1]; TSU-68 400 mg/kg/day p.o.): 52.8%; anti-tumor effect, 400 mg group versus 800 mg group ([2]; TSU-68 400 or 800 mg daily with l-OHP and S-1): almost equivalent; dose-limiting toxicity (DLT) ([2]; human, in vivo, 21 days): dose-limiting toxicity (DLT) including singultus and skin response in the hands and feet (Grade 3) or neutropenia (Grade 2) was observed; recommended dose (RD) of TSU-68 in the combination therapy ([2]; human, in vivo, 21 days): 400 mg; dose-limiting toxicity (DLT) ([2]; in vivo): no DLT was observed
